According to patent US12516046B2, “2-oxo-oxazolidine-5-carboxamides as NAV1.8 inhibitors” (Merck Sharp & Dohme LLC, priority 2020, dated 2026):

These compounds were tested against human Nav1.8 (Homo sapiens (Human), UniProt Q9Y5Y9) (assay: Nav1.8 Qube® Assay (automated 384-well patch-clamp)). Details: human Nav1.8 channels stably expressed in HEK 293 cells.
Format: cell-based
From the text: Qube® Assay Experimental Procedure

Sequence of human Nav1.8 (Q9Y5Y9 whole entry): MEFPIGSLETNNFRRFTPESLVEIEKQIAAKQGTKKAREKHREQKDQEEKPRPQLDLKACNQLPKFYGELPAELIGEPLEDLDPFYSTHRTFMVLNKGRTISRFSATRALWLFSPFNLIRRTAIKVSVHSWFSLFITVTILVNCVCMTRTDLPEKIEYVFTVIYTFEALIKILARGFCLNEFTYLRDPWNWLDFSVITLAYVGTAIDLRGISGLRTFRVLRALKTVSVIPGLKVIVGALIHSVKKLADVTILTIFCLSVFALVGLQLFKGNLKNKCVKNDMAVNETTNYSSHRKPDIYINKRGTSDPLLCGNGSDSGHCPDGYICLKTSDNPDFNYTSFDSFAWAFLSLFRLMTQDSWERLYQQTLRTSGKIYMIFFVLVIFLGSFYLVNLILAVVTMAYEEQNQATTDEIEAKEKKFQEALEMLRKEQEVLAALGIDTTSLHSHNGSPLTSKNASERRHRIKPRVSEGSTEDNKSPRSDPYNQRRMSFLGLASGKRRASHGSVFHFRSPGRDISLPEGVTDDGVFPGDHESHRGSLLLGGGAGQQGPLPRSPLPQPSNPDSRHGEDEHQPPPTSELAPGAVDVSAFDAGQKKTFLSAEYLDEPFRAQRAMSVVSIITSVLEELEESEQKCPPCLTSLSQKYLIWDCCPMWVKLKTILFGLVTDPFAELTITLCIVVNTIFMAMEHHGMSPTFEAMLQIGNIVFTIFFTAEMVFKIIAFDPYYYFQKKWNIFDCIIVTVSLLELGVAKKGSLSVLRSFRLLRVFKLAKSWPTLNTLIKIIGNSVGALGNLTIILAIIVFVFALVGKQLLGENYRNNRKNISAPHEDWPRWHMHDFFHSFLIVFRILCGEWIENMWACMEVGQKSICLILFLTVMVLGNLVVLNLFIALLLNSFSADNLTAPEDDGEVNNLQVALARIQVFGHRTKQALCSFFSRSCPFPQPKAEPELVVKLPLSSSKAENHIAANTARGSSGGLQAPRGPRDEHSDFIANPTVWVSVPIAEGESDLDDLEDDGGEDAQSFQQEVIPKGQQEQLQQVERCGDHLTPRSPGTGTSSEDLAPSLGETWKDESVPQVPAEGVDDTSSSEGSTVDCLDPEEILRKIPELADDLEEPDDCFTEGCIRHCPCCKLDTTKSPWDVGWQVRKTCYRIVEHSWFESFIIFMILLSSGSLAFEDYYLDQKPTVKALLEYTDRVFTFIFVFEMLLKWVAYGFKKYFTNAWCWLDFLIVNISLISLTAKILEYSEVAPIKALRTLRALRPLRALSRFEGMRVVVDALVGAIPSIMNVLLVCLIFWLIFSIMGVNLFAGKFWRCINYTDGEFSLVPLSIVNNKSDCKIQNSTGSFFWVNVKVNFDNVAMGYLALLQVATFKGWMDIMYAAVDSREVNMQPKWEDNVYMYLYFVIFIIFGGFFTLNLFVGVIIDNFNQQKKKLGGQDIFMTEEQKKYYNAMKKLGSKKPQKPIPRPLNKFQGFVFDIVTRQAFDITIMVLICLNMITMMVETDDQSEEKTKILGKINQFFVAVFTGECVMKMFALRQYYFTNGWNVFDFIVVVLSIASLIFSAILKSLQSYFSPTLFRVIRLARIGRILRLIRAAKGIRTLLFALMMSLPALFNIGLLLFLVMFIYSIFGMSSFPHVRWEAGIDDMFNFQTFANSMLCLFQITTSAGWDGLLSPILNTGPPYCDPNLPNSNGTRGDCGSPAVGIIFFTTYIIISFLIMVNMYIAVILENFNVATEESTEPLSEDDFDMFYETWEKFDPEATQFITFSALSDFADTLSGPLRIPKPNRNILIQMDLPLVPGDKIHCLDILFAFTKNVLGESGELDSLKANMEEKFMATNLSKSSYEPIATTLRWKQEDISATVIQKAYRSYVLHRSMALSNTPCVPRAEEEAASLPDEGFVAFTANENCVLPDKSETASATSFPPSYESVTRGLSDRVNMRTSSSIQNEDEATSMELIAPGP

| SMILES | IC50 |
| --- | --- |
| O=C1NC[C@@H](C(=O)NC(c2ccc(Cl)cc2)C2CCN(CC(F)(F)F)CC2)O1 (single isomer, unassigned) [Example 42B, (S)-N-((R or S)-(4-chlorophenyl)(1-(2,2,2-trifluoroethyl)piperidin-4-yl)methyl)-2-oxooxazolidine-5-carboxamide] | 0.272 µM |
| O=C1NC[C@@H](C(=O)NC(c2ccc(OCC(F)(F)F)nc2)c2ccc(F)c(Cl)c2F)O1 (single isomer, unassigned) [Example 50A, (S)—N—((R or S)-(3-chloro-2,4-difluorophenyl)(6-(2,2,2-trifluoroethoxy)pyridin-3-yl)methyl)-2-oxo-oxazolidine-5-carboxamide] | 0.0016 µM |
| O=C1NC[C@@H](C(=O)NC(c2ccc(F)c(Cl)c2)c2ccc(F)c(OCC(F)(F)F)n2)O1 (single isomer, unassigned) [Example 1B, (S)—N—((R or S)-(3-chloro-4-fluorophenyl)(5-fluoro-6-(2,2,2-trifluoroethoxy)pyridin-2-yl)methyl)-2-oxo-oxazolidine-5-carboxamide] | 0.004 µM |
| O=C1NC[C@@H](C(=O)NC(c2ccc(OC(F)F)cc2)c2ccc(F)c(Cl)c2)O1 (single isomer, unassigned) [Example 48A, (S)-N-((R or S)-(3-chloro-4-fluorophenyl)(4-(difluoromethoxy)phenyl)methyl)-2-oxooxazolidine-5-carboxamide] | 0.0027 µM |
| O=C1NC[C@@H](C(=O)NC(c2ccc(Cl)cc2)c2c[nH]c(C(F)(F)F)n2)O1 (single isomer, unassigned) [Example 17A, (S)-N-((R or S)-(4-chlorophenyl)(2-(trifluoromethyl)-1H-imidazol-4-yl)methyl)-2-oxooxazolidine-5-carboxamide] | 0.593 µM |
| O=C1NC[C@@H](C(=O)NC(c2ccc(Cl)cc2)c2ccc3ccccc3c2)O1 (stereo partly drawn) [Example 31, (5S)-N-((4-chlorophenyl) (naphthalen-2-yl)methyl)-2-oxooxazolidine-5-carboxamide] | 0.0039 µM |
| O=C1NC[C@@H](C(=O)NC(c2ccc(Cl)cc2)c2ccc(F)c(Cl)c2)O1 (single isomer, unassigned) [Example 19B, (S)—N—((R or S)-(3-chloro-4-fluorophenyl)(4-chlorophenyl)methyl)-2-oxooxazolidine-5-carboxamide] | 0.0024 µM |
| O=C1NC[C@@H](C(=O)NC(c2ccc(F)c(Cl)c2F)[C@H]2C[C@H](C(F)(F)F)C2)O1 (single isomer, unassigned) [Example 70, (S)—N—((R or S)-(3-chloro-2,4-difluorophenyl)((trans)-3-(trifluoromethyl)cyclobutyl)methyl)-2-oxooxazolidine-5-carboxamide] | 0.0054 µM |
| O=C1NC[C@@H](C(=O)NC(c2ccc(Cl)cc2)c2c[nH]c(C(F)(F)F)n2)O1 (single isomer, unassigned) [Example 17B, (S)-N-((R or S)-(4-chlorophenyl)(2-(trifluoromethyl)-1H-imidazol-4-yl)methyl)-2-oxooxazolidine-5-carboxamide] | 10.6 µM |
| O=C1NC[C@@H](C(=O)NC(c2ccc(Cl)cc2)c2cccc(C3CC3)c2)O1 (single isomer, unassigned) [Example 33A, (S)-N-((R or S)-(4-chlorophenyl)(3-cyclopropylphenyl)methyl)-2-oxooxazolidine-5-carboxamide] | 0.0048 µM |
| O=C1NC[C@@H](C(=O)NC(c2ccc(F)c(Cl)c2)c2csc(C(F)(F)F)n2)O1 (single isomer, unassigned) [Example 44A, (S)—N—((R or S)-(3-chloro-4-fluorophenyl)(2-(trifluoromethyl)thiazol-4-yl)methyl)-2-oxooxazolidine-5-carboxamide] | 0.0046 µM |
| CC(C)(C)c1csc(C(NC(=O)[C@@H]2CNC(=O)O2)c2ccc(Cl)cc2)n1 (single isomer, unassigned) [Example 39B, (S)-N-((R or S)-(4-(tert-butyl)thiazol-2-yl)(4-chlorophenyl)methyl)-2-oxooxazolidine-5-carboxamide] | 0.064 µM |
| O=C1NC[C@@H](C(=O)NC(c2ccc(Cl)cc2)c2cccc(F)c2F)O1 (single isomer, unassigned) [Example 29B, (S)-N-((R or S)-(4-chlorophenyl)(2,3-difluorophenyl)methyl)-2-oxooxazolidine-5-carboxamide] | 0.074 µM |
| O=C1NC[C@@H](C(=O)NC(c2ccccc2)c2ccc(Cl)c(Cl)c2)O1 (single isomer, unassigned) [Example 25B, (S)-N-((R or S)-(3,4-dichlorophenyl) (phenyl)methyl)-2-oxooxazolidine-5-carboxamide] | 0.014 µM |
| O=C1NC[C@@H](C(=O)NC(c2ccc(F)c(Cl)c2)c2ccc(Cl)cn2)O1 (single isomer, unassigned) [Example 14B, (S)-N-((R or S)-(3-chloro-4-fluorophenyl)(5-chloropyridin-2-yl)methyl)-2-oxooxazolidine-5-carboxamide] | 0.034 µM |
| O=C1NC[C@@H](C(=O)NC(c2ccc(Cl)cc2)c2cccs2)O1 (stereo partly drawn) [Example 24, (5S)-N-((4-chlorophenyl)(thio-phen-2-yl)methyl)-2-oxooxazolidine-5-carboxamide] | 0.144 µM |

| SMILES | IC50 |
| --- | --- |
| COc1ncccc1C(NC(=O)[C@@H]1CNC(=O)O1)c1ccc(F)c(Cl)c1 (single isomer, unassigned) [Example 58A, (S)-N-((R or S)-(3-chloro-4-fluorophenyl)(2-methoxypyridin-3-yl)methyl)-2-oxooxazolidine-5-carboxamide] | 0.012 µM |
| O=C1NC[C@@H](C(=O)NC(c2ccc(OC(F)(F)F)c(Cl)c2)c2coc(C(F)(F)F)n2)O1 (single isomer, unassigned) [Example 51B, (S)-N-((R or S)-(3-chloro-4-(trifluoro-methoxy)phenyl)(2-(trifluoromethyl)oxazol-4-yl)methyl)-2-oxooxazolidine-5-carboxamide] | 0.0037 µM |
| CC1(C(=O)NC(c2ccc(Cl)cc2)c2ccc(Cl)cc2)CNC(=O)O1 (single isomer, unassigned) [Example 7B, (R or S)—N-(bis(4-chlorophenyl)methyl)-5-methyl-2-oxooxazolidine-5-carboxamide] | 2.03 µM |
| O=C1NC[C@@H](C(=O)NC(c2cncc(Cl)c2)c2ccc(F)c(Cl)c2)O1 (single isomer, unassigned) [Example 13A, (S)-N-((R or S)-(3-chloro-4-fluorophenyl)(5-chloropyridin-3-yl)methyl)-2-oxooxazolidine-5-carboxamide] | 0.573 µM |
| O=C1NC[C@@H](C(=O)NC(COc2ccc(F)c(Cl)c2)c2ccc(F)c(Cl)c2)O1 (single isomer, unassigned) [Example 8A, (S)—N—((R or S)-2-(3-chloro-4-fluorophenoxy)-1-(3-chloro-4-fluorophenyl)ethyl)-2-oxooxazolidine-5-carboxamide] | 0.04 µM |
| O=C1NC[C@@H](C(=O)NC(c2ccc(F)c(Cl)c2)c2cnn(CC(F)(F)F)c2)O1 (single isomer, unassigned) [Example 59B, (S)-N-((R or S)-(3-chloro-4-fluorophenyl)(1-(2,2,2-trifluoroethyl)-1H-pyrazol-4-yl)methyl)-2-oxooxazolidine-5-carboxamide] | 0.693 µM |
| O=C1NC[C@@H](C(=O)NC(c2ccc(Cl)cc2)c2n[nH]c3ccccc23)O1 (single isomer, unassigned) [Example 15B, (S)-N-((R or S)-(4-chlorophenyl)(1H-indazol-3-yl)methyl)-2-oxooxazolidine-5-carboxamide] | 0.058 µM |
| CC1NC(=O)OC1C(=O)NC(c1ccc(Cl)cc1)c1ccc(Cl)cc1 (single isomer, unassigned) [Example 6B, (cis or trans)-N-(bis(4-chlorophenyl)methyl)-4-methyl-2-oxooxazolidine-5-carboxamide] | 1.52 µM |
| O=C1NC[C@@H](C(=O)NC(c2ccc(Cl)cc2)c2ccnc(C(F)(F)F)n2)O1 (single isomer, unassigned) [Example 11B, (S)-N-((R or S)-(4-chlorophenyl)(2-(trifluoromethyl)pyrimidin-4-yl)methyl)-2-oxooxazolidine-5-carboxamide] | 0.399 µM |
| O=C1NC[C@@H](C(=O)NC(c2cccc(Cl)c2)C2CC2c2ccccc2)O1 (single isomer, unassigned) [Example 26B, (5S)-N-((R or S)-(3-chlorophenyl) ((cis or trans)-2-phenylcyclopropyl)methyl)-2-oxooxazolidine-5-carboxamide] | 0.07 µM |
| O=C1NC[C@@H](C(=O)NC(c2ccccc2)c2ccc(Cl)c(Cl)c2)O1 (single isomer, unassigned) [Example 25A, (S)-N-((R or S)-(3,4-dichlorophenyl) (phenyl)methyl)-2-oxooxazolidine-5-carboxamide] | 0.0027 µM |
| CC(NC(=O)[C@@H]1CNC(=O)O1)(c1ccc(Cl)cc1)c1ccc(Cl)cc1 [Example 41, (S)-N-(1,1-bis(4-chlorophenyl)ethyl)-2-oxooxazolidine-5-carboxamide] | 0.378 µM |
| Cn1nc(C(NC(=O)[C@@H]2CNC(=O)O2)c2ccc(F)c(Cl)c2)cc1C(F)(F)F (single isomer, unassigned) [Example 62A, (S)-N-((R or S)-(3-chloro-4-fluorophenyl)(1-methyl-5-(trifluoromethyl)-1H-pyrazol-3-yl)methyl)-2-oxooxazolidine-5-carboxamide] | 0.039 µM |
| O=C1NC[C@@H](C(=O)NC(c2ccccc2)c2cc(Cl)cc(Cl)c2)O1 (stereo partly drawn) [Example 20, (5S)-N-((3,5-dichlorophenyl) (phenyl)methyl)-2-oxooxazolidine-5-carboxamide] | 0.032 µM |
| COc1cc(Cl)ccc1C(NC(=O)[C@@H]1CNC(=O)O1)c1ccc(F)cc1 (single isomer, unassigned) [Example 55B, (S)—N—((R or S)-(4-chloro-2-methoxyphenyl)(4-fluorophenyl)methyl)-2-oxooxazolidine-5-carboxamide] | 0.0047 µM |
| CC(C)c1cccc(C(NC(=O)[C@@H]2CNC(=O)O2)c2ccc(Cl)cc2)c1 (single isomer, unassigned) [Example 32B, (S)-N-((R or S)-(4-chlorophenyl)(3-isopropylphenyl)methyl)-2-oxooxazolidine-5-carboxamide] | 0.012 µM |
